{"source": "patent US4550186A", "about": "“Binuclear copper (II) carboxylates formed from amine-carboxyboranes” (Duke University, priority 1983, dated 1985)", "key": {"[1]": {"molecular_target": "phosphoribosyl pyrophosphate amidotransferase (Mus musculus, UniProt Q8CIH9)", "sequence (Q8CIH9 12-517)": "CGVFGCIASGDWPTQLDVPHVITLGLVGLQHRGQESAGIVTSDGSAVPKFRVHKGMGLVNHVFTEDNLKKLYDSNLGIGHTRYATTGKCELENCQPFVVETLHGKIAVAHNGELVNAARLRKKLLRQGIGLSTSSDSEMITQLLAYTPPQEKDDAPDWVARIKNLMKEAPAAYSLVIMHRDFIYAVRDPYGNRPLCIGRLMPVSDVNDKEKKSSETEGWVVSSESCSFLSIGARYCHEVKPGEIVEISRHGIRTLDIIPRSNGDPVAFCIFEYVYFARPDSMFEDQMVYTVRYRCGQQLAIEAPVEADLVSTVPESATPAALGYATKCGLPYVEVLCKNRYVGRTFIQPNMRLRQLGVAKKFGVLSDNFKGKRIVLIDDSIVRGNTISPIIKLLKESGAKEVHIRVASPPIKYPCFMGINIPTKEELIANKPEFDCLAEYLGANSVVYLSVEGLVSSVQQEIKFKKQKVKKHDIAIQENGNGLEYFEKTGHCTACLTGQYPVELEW", "test": "In vivo phosphoribosyl pyrophosphate amidotransferase activity", "procedure": "CF1 male mice (~30 g) were implanted with 2×10^6 Ehrlich ascites tumor cells, intraperitoneally on Day 0. Compound I was suspended by homogenation in 0.05% polysorbate.80-water and administered intraperitoneally at 10 and 20 mg/kg for 9 days to determine its effectiveness for inhibition of tumor growth. Mice were sacrificed on Day 10, and the ascites fluid was collected from the peritoneal cavity. The volume and ascrit (packed cell volume) were determined for each animal and the percent inhibition of tumor growth was calculated. For the metabolic studies, mice were treated on Days 8 and 9 with 10 mg/kg of Compound I, intraperitoneally. […]\nCarbamyl phosphate synthetase activity was determined using the reaction medium of Kalman et al [Am. […] Citrulline formed from ornithine was measured at 490 nm by the method of Archibald [J. Biol. Chem., 156, 121 (1944)]. […] The ^14 CO2 generated in 15 min was trapped in 1M KOH and counted. Thymidylate synthetase activity was determined using a post-mitochondrial supernatant (9000 g×10 min) and 5 μCi of 5-^3 H-deoxyuridine monophosphate (14 Ci/mmol) according to the method of Kampf et al [ J. Med. Chem., 19, 903 (1976)]. ^14 C-Formate incorporation into purines was determined by the method of Spassova et al [Biochem. Pharmacol., 25, 923 (1976)] using 0.5 μCi of ^14 C-formic acid (52.0 mCi/mmol). […] The Rf value for xanthine monophosphate was scraped and counted. […]"}, "[2]": {"system": "sn-Glycerol 3-phosphate Acyl Transferase", "test": "In vivo liver enzyme study: sn-glycerol 3-phosphate acyl transferase", "set-up": "species or system mouse", "settings": "CF1 liver after 16 days i.p.", "procedure": "In vitro enzymatic studies were determined using 10% homogenates of CF1 male mouse liver with 50-200 μM of test drugs. In vivo enzymatic studies were determined using 10% homogenates of liver from CF1 male mice obtained after administering the agents for 16 days at a dose ranging from 2.5-20 mg/kg/day intraperitoneally. The liver homogenates for both in vitro and in vivo studies were prepared in 0.25M sucrose and 0.001M (ethylenedinitrilo)tetraacetic acid. Acetyl coenzyme A synthetase and adenosine triphosphate dependent citrate lyase activities were determined spectrophotometrically at 540 nm as the hydroxylamate of acetyl coenzyme A formed after 30 min at 37° C. Mitochondrial citrate exchange was determined by the procedure of Robinson et al [Eur. J. Biochem., 216, 63 (1970)] using ^14 C-sodium bicarbonate (41 mCi/mmol) incorporated into mitochondrial ^14 C-citrate after isolating rat mitochondria (9000 g×10 min) from the homogenates. The exchanges of the ^14 C-citrate were determined after incubating the mitochondrial fraction which was loaded with labeled citrate and test drugs for 10 min. Then the radioactivity was measured in the mitochondrial and supernantant fractions in scintillation fluid and expressed as a percentage. Cholesterol side chain oxidation was determined by the method of Kritchevsky and Tepper [Artherosclerosis, 18, 93 (1973)] using (26-^14 C) cholesterol (50 mCi/mmol) and mitochondria isolated from rat liver homogenates. […] Fatty acid synthetase activity was determined by the method of Brady et al [J. Biol. Chem., 235, 3093 (1960)] using [2-^14 C] malonyl-coenzyme A (37.5 mCi/mmol) which was incorporated into newly synthesized fatty acids that were extracted with ether and counted. Acyl transferase activity was determined with glycerol-3phosphate [L-2-^3 H(N)] […] HCl and counted. Phosphatidate phosphohydrolase activity was measured as the inorganic phosphate released after 30 min from phosphatidic acid by the method of Mavis et al [J. Lipid Res., 19, 467 (1978)]. […]"}}}
{"substance": "{Cu[(CH3)3 N.BH2 CO2 ]2.(CH3)3 N.BH2 COOH} [Compound I]", "values": [{"measurement": "Phosphoribosyl pyrophosphate amidotransferase activity", "setting": "[1]; 10 mg/kg/day I.P. on Days 8 and 9", "result": "41 ± 3", "unit": "% Control"}, {"measurement": "Phosphoribosyl pyrophosphate amido transferase activity reduced", "setting": "[1]; drug administration for 2 days", "result": 59, "unit": "%"}, {"measurement": "sn-Glycerol 3-phosphate Acyl Transferase", "setting": "[2]; 2.5 mg/kg", "result": "95 ± 6% of control"}, {"measurement": "sn-Glycerol 3-phosphate Acyl Transferase", "setting": "[2]; 5.0 mg/kg", "result": "95 ± 7% of control"}, {"measurement": "sn-Glycerol 3-phosphate Acyl Transferase", "setting": "[2]; 10 mg/kg", "result": "119 ± 7% of control"}]}
